{
  "source": "patent US8435769B2",
  "about": "“Use of glyphosate to produce shikimic acid in microorganisms” (Monsanto Technology LLC, priority 2007, dated 2013)",
  "assay_type_in_all_cases": "cell-based, Escherichia coli",
  "key": {"[1]": {"system": "host strain LBB427 transformed with the plasmid pXT1457", "assay": "HPLC assay of culture supernatant after glyphosate treatment, pXT1457 strain", "procedure": "To confirm that the new plasmid was functioning as expected, the wild-type E. coli K-12 host strain LBB427 was transformed with the plasmid pXT1457. Techniques for transforming bacteria, including strains of E. coli, are known in the art (Sambrook and Russell, 2001; Ausubel et al., 2005). The shikimic acid and phenylalanine production levels of this strain were compared to that of the untransformed host strain LBB427. The strains were cultured in 50 milliliters of Vogel-Bonner minimal culture medium (Vogel and Bonner, 1956), consisting of magnesium sulfate heptahydrate (MgSO4-7H2O) at 298 milligrams per liter, anhydrous dibasic potassium phosphate (K2HPO4) at 14.93 grams per liter, sodium ammonium phosphate tetrahydrate (NaNH4HPO4-4H2O) at 5.22 grams per liter, anhydrous citric acid (the free acid form) at 2.73 grams per liter, and glucose at 2.00 grams per liter. The pH of the culture medium was 7.0. For the strain LBB427 transformed with the plasmid pXT1457, ampicillin was included in the culture medium at 100 milligrams per liter. The cultures were grown in flasks, on an incubator shaker operating at 300 rpm and 37 degrees Celsius. At 24 hours after inoculation, the cells were pelleted by centrifugation, and the culture supernatants were analyzed by a high-pressure liquid chromatography (HPLC) assay for shikimic acid and phenylalanine content. To the samples to be assayed, phosphoric acid was added to a final concentration of 6 millimolar. […]\nThe untransformed host strain LBB427 and the host strain LBB427 transformed with the plasmid pXT1457 were grown in 50 milliliters of the Vogel-Bonner minimal culture medium described in Example 1. […] At 24 hours after inoculation (i.e., 21.5 hours after N-(phosphonomethyl)glycine addition), the cells were pelleted by centrifugation, and the culture supernatants were analyzed for shikimic acid content using the HPLC assay described in Example 1. The culture supernatants of the host strain LBB427 transformed with the plasmid pXT1457 were also analyzed for phenylalanine content. […]"}, "[2]": {"system": "host strain LBB427 transformed with the plasmid pXT1483", "assay": "HPLC assay of culture supernatant after glyphosate treatment, pXT1483 strain"}, "[3]": {"system": "host strain LBB427 transformed with the plasmid pXT1483", "assay": "High-density phosphate-limited fermentation culture with glyphosate addition", "settings": "optical density of 40; glyphosate 20 millimolar; twelve hours after addition; sample at pH 1.0, 60 degrees Celsius, 15 minutes", "procedure": "The host strain LBB427 transformed with the plasmid pXT1483 can be grown to high optical densities in a phosphate-limited fermentation culture. Fermentations are conducted in a chemically-defined minimal medium containing 5.9 grams of anhydrous ammonium sulfate ((NH4)2SO4), 1.8 grams of anhydrous dibasic potassium phosphate (K2HPO4), 1.0 grams of monobasic sodium phosphate monohydrate (NaH2PO4—H2O), 550 milligrams of magnesium sulfate heptahydrate (MgSO4-7H2O), 27 milligrams of ferric chloride hexahydrate (FeCl3-6H2O), 0.5 milligrams of zinc sulfate heptahydrate (ZnSO4-7H2O), 0.9 milligrams of cobalt chloride hexahydrate (CoCl2-6H2O), 0.9 milligrams of sodium molybdate dihydrate (Na2MoO4-2H2O), 1.1 milligrams of cupric sulfate pentahydrate (CuSO4-5H2O), 0.3 milligrams of boric acid (H3BO3), and 0.7 milligrams of manganese sulfate monohydrate (MnSO4—H2O) per liter of water. The fermenter is maintained at 37 degrees Celsius. The pH is maintained at 7.0 by the controlled addition of concentrated (about 29%) ammonium hydroxide (NH4OH). […]\nTwelve hours after N-(phosphonomethyl)glycine addition, samples of the fermentation cultures are taken for analysis of shikimic acid levels. […] The cells are pelleted by centrifugation, and the culture supernatants are analyzed for shikimic acid content using the HPLC assay described in Example 1."}, "[4]": {"system": "E. coli K-12 host strain LBB427 (untransformed and transformed with plasmid pXT1457)", "assay": "Growth of shake-flask cultures after glyphosate addition", "settings": "glyphosate 3.38 grams per liter (20 millimolar) added 2.5 hours after inoculation; Vogel-Bonner minimal culture medium; 37 degrees Celsius", "procedure": "(§1) To confirm that the new plasmid was functioning as expected, the wild-type E. coli K-12 host strain LBB427 was transformed with the plasmid pXT1457. Techniques for transforming bacteria, including strains of E. coli, are known in the art (Sambrook and Russell, 2001; Ausubel et al., 2005). The shikimic acid and phenylalanine production levels of this strain were compared to that of the untransformed host strain LBB427. […] At 24 hours after inoculation, the cells were pelleted by centrifugation, and the culture supernatants were analyzed by a high-pressure liquid chromatography (HPLC) assay for shikimic acid and phenylalanine content. […]\nThe untransformed host strain LBB427 and the host strain LBB427 transformed with the plasmid pXT1457 were grown in 50 milliliters of the Vogel-Bonner minimal culture medium described in Example 1. […] At 24 hours after inoculation (i.e., 21.5 hours after N-(phosphonomethyl)glycine addition), the cells were pelleted by centrifugation, and the culture supernatants were analyzed for shikimic acid content using the HPLC assay described in Example 1. The culture supernatants of the host strain LBB427 transformed with the plasmid pXT1457 were also analyzed for phenylalanine content."}, "[5]": {"system": "untransformed host strain LBB427", "assay": "HPLC assay of culture supernatant after glyphosate treatment, untransformed strain", "procedure": "as §1\n[…] At 24 hours after inoculation (i.e., 21.5 hours after N-(phosphonomethyl)glycine addition), the cells were pelleted by centrifugation, and the culture supernatants were analyzed for shikimic acid content using the HPLC assay described in Example 1. The culture supernatants of the host strain LBB427 transformed with the plasmid pXT1457 were also analyzed for phenylalanine content. […]"}, "[6]": {"settings": "glyphosate 20 millimolar and phosphate-limitation (PF culture medium), 24 hours after inoculation"}, "[7]": {"settings": "glyphosate 20 millimolar, Vogel-Bonner minimal culture medium, 24 hours after inoculation (21.5 hours after addition)"}},
  "data": [
    {"smiles": "O=C(O)CNCP(=O)(O)O", "note": "[glyphosate, N-(phosphonomethyl)-glycine]", "values": [
      {"measurement": "shikimic acid in the culture supernatant", "setting": "[1]; [6]", "value": "about 250 milligrams of shikimic acid per OD unit per liter"},
      {"measurement": "shikimic acid in the culture supernatant", "setting": "[1]; [7]", "value": "did not produce detectable levels of shikimic acid"},
      {"measurement": "phenylalanine in the culture supernatant", "setting": "[1]; glyphosate 20 millimolar, Vogel-Bonner minimal culture medium, 24 hours after inoculation, about 400 without glyphosate", "value": "about 50 milligrams of phenylalanine per OD unit per liter"},
      {"measurement": "shikimic acid in the culture supernatant", "setting": "[2]; [6]", "value": "about 400 milligrams of shikimic acid per OD unit per liter"},
      {"measurement": "level of shikimic acid in the culture supernatant", "setting": "[2]; glyphosate 20 millimolar and phosphate-limitation, culture sample with cells adjusted to pH 1.0, heated to 60 degrees Celsius for 15 minutes", "value": "about 600 milligrams per OD unit per liter"},
      {"measurement": "shikimic acid in the culture supernatant", "setting": "[3]", "value": "about 24 grams of shikimic acid per liter"},
      {"measurement": "Growth of the cultures", "setting": "[4]", "value": "almost completely inhibited"},
      {"measurement": "shikimic acid in the culture supernatant", "setting": "[5]; [6]", "value": "about 200 milligrams of shikimic acid per OD unit per liter"},
      {"measurement": "shikimic acid in the culture supernatant", "setting": "[5]; [7]", "value": "did not produce detectable levels of shikimic acid"}
    ]}
  ]
}
